# According to patent publication US9113629B2, “4-amino-6-(4-substituted-phenyl)-picolinates and 6-amino-2-(4-substituted-phenyl)-pyrimidine-4-carboxylates and their use as herbicides” (DOW AGROSCIENCES LLC, priority 2013, dated 2015):
# Where two headings read alike, the source gives them in different places.
# Tests used:
# [1] = tested on: Key Grass and Sedge Weeds as well as Grass Crops; test: Post-emergent Test II herbicidal activity (Table 6); type: in vivo; details: post-emergence, 336 h; for pest or weed control at 70 g/ha: application rate 70 g ai/ha; for pest or weed control at 140 g/ha: application rate 140 g ai/ha
# Procedure, shortened: (§1)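 Plants grown in Metro-Mix 360 (pH 6.0–6.8) in a greenhouse (~15 h photoperiod, 23–29 °C day) to first or second true leaf stage, then sprayed with compound in acetone/DMSO/aqueous crop-oil-surfactant carrier at 187 L/ha by track sprayer. Injury visually scored 0–100% versus untreated plants after 14 d.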
# [2] = tested on: Key Broadleaf Weed and Crop Species; test: Post-emergent Test II herbicidal activity (Table 5); type: in vivo; details: post-emergence, 336 h, post-emergent, 14 days after application; for pest or weed control at 70 g/ha: 70 g ai/ha; for pest or weed control at 140 g/ha: 140 g ai/ha
# Procedure, shortened: as §1
# [3] = Triticum aestivum, TRZSS (wheat), read-out: Visual Growth Reduction (%) 14 Days After Application, TRZSS
# [4] = CYPES: yellow nutsedge (Cyperus esculentus), read-out: Visual Growth Reduction (%) 14 Days After Application, CYPES
# [5] = DIGSA: crabgrass (Digitaria sanguinalis), read-out: Visual Growth Reduction (%) 14 Days After Application, DIGSA
# [6] = ECHCG: barnyardgrass (Echinochloa crus-galli), read-out: Visual Growth Reduction (%) 14 Days After Application, ECHCG
# [7] = ORYSA: rice (Oryza sativa), read-out: Visual Growth Reduction (%) 14 Days After Application, ORYSA
# [8] = SETFA: giant foxtail (Setaria faberi), read-out: Visual Growth Reduction (%) 14 Days After Application, SETFA
# [9] = SORVU: grain sorghum (Sorghum vulgare), read-out: Visual Growth Reduction (%) 14 Days After Application, SORVU
# [10] = ZEAMX: maize, corn (Zea mays), read-out: Visual Growth Reduction (%) 14 Days After Application, ZEAMX
# [11] = ABUTH: velvetleaf (Abutilon theophrasti), read-out: Visual Growth Reduction (%) 14 Days After Application ABUTH
# [12] = AMARE: redroot pigweed (Amaranthus retroflexus), read-out: Visual Growth Reduction (%) 14 Days After Application AMARE
# [13] = BRSNN: oilseed-rape, canola (Brassica napus), read-out: Visual Growth Reduction (%) 14 Days After Application BRSNN
# [14] = CHEAL: lambsquarters (Chenopodium album), read-out: Visual Growth Reduction (%) 14 Days After Application CHEAL
# [15] = EPHHL: wild poinsettia (Euphorbia heterophylla), read-out: Visual Growth Reduction (%) 14 Days After Application EPHHL
# [16] = HELAN: sunflower (Helianthus annuus), read-out: Visual Growth Reduction (%) 14 Days After Application HELAN
# [17] = VIOTR: wild pansy (Viola tricolor), read-out: Visual Growth Reduction (%) 14 Days After Application VIOTR
smiles,measurement,setting,value
"COC(=O)c1nc(-c2ccc(I)c(F)c2)nc(N)c1OC [Compound 27, Methyl 6-amino-2-(3-fluoro-4-iodophenyl)-5-methoxypyrimidine-4-carboxylate]",pest or weed control at 70 g/ha,[1]; [3],45 to 59%
same,pest or weed control at 140 g/ha,[1]; [3],45 to 59%
same,pest or weed control at 70 g/ha,[1]; [4],0 to 29%
same,pest or weed control at 140 g/ha,[1]; [4],95 to 100%
same,pest or weed control at 70 g/ha,[1]; [5],0 to 29%
same,pest or weed control at 140 g/ha,[1]; [5],0 to 29%
same,pest or weed control at 70 g/ha,[1]; [6],0 to 29%
same,pest or weed control at 140 g/ha,[1]; [6],0 to 29%
same,pest or weed control at 70 g/ha,[1]; [7],0 to 29%
same,pest or weed control at 140 g/ha,[1]; [7],0 to 29%
same,pest or weed control at 70 g/ha,[1]; [8],0 to 29%
same,pest or weed control at 140 g/ha,[1]; [8],0 to 29%
same,pest or weed control at 70 g/ha,[1]; [9],0 to 29%
same,pest or weed control at 140 g/ha,[1]; [9],30 to 44%
same,pest or weed control at 70 g/ha,[1]; [10],0 to 29%
same,pest or weed control at 140 g/ha,[1]; [10],0 to 29%
same,pest or weed control at 70 g/ha,[2]; [11],60 to 74%
same,pest or weed control at 140 g/ha,[2]; [11],75 to 84%
same,pest or weed control at 70 g/ha,[2]; [12],60 to 74%
same,pest or weed control at 140 g/ha,[2]; [12],75 to 84%
same,pest or weed control at 70 g/ha,[2]; [13],60 to 74%
same,pest or weed control at 140 g/ha,[2]; [13],60 to 74%
same,pest or weed control at 70 g/ha,[2]; [14],85 to 94%
same,pest or weed control at 140 g/ha,[2]; [14],85 to 94%
same,pest or weed control at 70 g/ha,[2]; [15],95 to 100%
same,pest or weed control at 140 g/ha,[2]; [15],95 to 100%
same,pest or weed control at 70 g/ha,[2]; [16],85 to 94%
same,pest or weed control at 140 g/ha,[2]; [16],85 to 94%
same,pest or weed control at 70 g/ha,[2]; [17],95 to 100%
same,pest or weed control at 140 g/ha,[2]; [17],95 to 100%
